Experimental data reported in paper PMC8041284, “Tunable Methacrylamides for Covalent Ligand Directed Release Chemistry” (Journal of the American Chemical Society, 2021).
Where two headings read alike, the source gives them in different places.

Biological target: BTK (Homo sapiens, UniProt Q06187)
Assay: biochemical
[1] = read-out: BTK inhibition (%), 0.75 uM BTK, […] probe 3l, 15 min preincubation

Chain of BTK (Q06187 402-655 limits assumed): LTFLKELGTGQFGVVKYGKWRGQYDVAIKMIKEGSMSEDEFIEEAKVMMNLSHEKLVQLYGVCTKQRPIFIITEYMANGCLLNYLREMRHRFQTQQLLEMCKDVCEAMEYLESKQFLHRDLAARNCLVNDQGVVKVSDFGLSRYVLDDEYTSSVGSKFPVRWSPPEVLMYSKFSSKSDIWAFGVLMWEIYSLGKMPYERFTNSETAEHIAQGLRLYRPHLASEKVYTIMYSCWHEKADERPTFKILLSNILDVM

| SMILES | inhibition at 10 µM [1] [%] | inhibition at 10 µM (read-out: BTK inhibition (%)) [%] |
| --- | --- | --- |
| Cn1nnc(-c2ccc(-c3ccc(N4C[C@H](COP(=O)(O)O)OC4=O)cc3F)cn2)n1 [PCM-0214830] | 13.2 |  |
| C=CCc1ccc(O)c(-c2ccc(O)c(CC=C)c2)c1 [PCM-0094855] | 37.9 |  |
| CC1=CC(=O)CC(C)(C)C1=O [PCM-0215085] | 7.8 |  |
| CCN1CC(CCN2CCOCC2)C(c2ccccc2)(c2ccccc2)C1=O (centres unmarked) [PCM-0095590] | 8.6 |  |
| O=C(COc1cccc2c(=O)[nH]ccc12)c1ccccc1 [PCM-0095624] | 5.4 |  |
| CC1(COc2ccc3c(c2)ncn3-c2ccc3cccc(N4CCC(N)CC4)c3n2)COC1 [PCM-0095459] | 6.2 |  |
| CC(=O)OCC1=C(C(=O)O)N2C(=O)[C@@H](N)[C@H]2SC1 [PCM-0215190] | -8.5 |  |
| O=C1/C(=C/c2cccs2)CC/C1=C\c1cccs1 [PCM-0215307] | 6 |  |
| FC(F)(F)Oc1ccc(-c2ccc3nnc(C(F)(F)F)n3c2)cc1 [PCM-0216074] | 7.7 |  |
| COc1cc2c[n+](C)c3c4cc5c(cc4ccc3c2cc1OC)OCO5 [PCM-0216452] | 27.8 |  |
| N#Cc1c(N)nc(NC2CC2)nc1N [PCM-0216125] | 14 |  |
| CCOc1nc2cccc(C(=O)OCc3oc(=O)oc3C)c2n1Cc1ccc(-c2ccccc2-c2noc(=O)[nH]2)cc1 [PCM-0090373] | 24.1 |  |
| C[N+]1(C)CCC(=C(c2ccccc2)c2ccccc2)CC1 [PCM-0085922] | 13.2 |  |
| O=C1C[C@@H](c2ccc(O[C@@H]3O[C@H](CO)[C@@H](O)[C@H](O)[C@H]3O)cc2)Oc2cc(O)ccc21 [PCM-0214980] | 10.9 |  |
| C=CC[N+]1([C@H]2C[C@H]3[C@@H]4CC[C@H]5C[C@H](O)[C@@H](N6CCOCC6)C[C@]5(C)[C@H]4CC[C@]3(C)[C@H]2OC(C)=O)CCCC1 [PCM-0214619] | -24.1 |  |
| CCC[C@@H]1C[C@@H](C(=O)N[C@@H]([C@H]2O[C@H](SC)[C@H](OP(=O)(O)O)[C@@H](O)[C@H]2O)[C@H](C)Cl)N(C)C1 [PCM-0095212] | -5.1 |  |
| O=S1(=O)CCN(CN2CCS(=O)(=O)NC2)CN1 [PCM-0215138] | 0 |  |
| Cc1cc(O)c2c(c1)C(=O)c1cc(O)cc(O)c1C2=O [PCM-0065315] | 69.3 |  |
| O=c1[nH]c(=O)n([C@H]2C[C@H](O)[C@@H](CO)O2)cc1C(F)(F)F [PCM-0086194] | 2.3 |  |
| CN1CCCCC1Cn1cc(C(=O)c2cc([N+](=O)[O-])ccc2I)c2ccccc21 (centres unmarked) [PCM-0095105] |  | 22.6 |
| CN(C)c1ccc(C(=O)NCCCCCCC(=O)NO)cc1 [PCM-0095347] | 4.7 |  |
| O=C1C(c2[nH]c3ccccc3c2O)=Nc2ccccc21 [PCM-0215050] | 28.8 |  |
| OCc1ccccc1O[C@@H]1O[C@H](CO)[C@@H](O)[C@H](O)[C@H]1O [PCM-0086703] | -7.6 |  |
| NC[C@H]1O[C@H](O[C@H]2[C@H](O)[C@@H](O[C@H]3O[C@H](CO)[C@@H](O)[C@H](N)[C@H]3O)[C@H](N)C[C@@H]2N)[C@H](O)[C@@H](O)[C@@H]1O [PCM-0086137] | 23.8 |  |
| NC[C@@H]1O[C@H](O[C@H]2[C@@H](O)[C@H](O[C@@H]3[C@@H](O)[C@H](N)C[C@H](N)[C@H]3O[C@H]3O[C@H](CO)[C@@H](O)[C@H](O)[C@H]3N)O[C@@H]2CO)[C@H](N)[C@@H](O)[C@@H]1O [PCM-0215214] | 5.1 |  |
| CCCCC[C@H](O)/C=C/[C@H]1[C@H](O)CC(=O)[C@@H]1CCCCCCC(=O)O [PCM-0086285] | 6.9 |  |

| SMILES | inhibition at 10 µM [1] [%] | inhibition at 10 µM (read-out: BTK inhibition (%)) [%] |
| --- | --- | --- |
| CC(C)C(=O)Oc1ccc(CO)cc1[C@H](CCN(C(C)C)C(C)C)c1ccccc1 [PCM-0095281] | -0.8 |  |
| N=C1S/C(=C\c2ccc(-c3ccc4c(c3)C(=O)NC4=O)o2)C(=O)N1c1ccc(Br)cc1 [PCM-0215801] | 27 |  |
| O=c1cc(-c2cccc3c2Sc2ccccc2S3)oc(N2CCOCC2)c1 [PCM-0095067] | -12.4 |  |
| Fc1ccc2c(/C=C/c3nn[nH]n3)c[nH]c2c1 [PCM-0215746] | 4.6 |  |
| CCOC(=O)N1CCC(CN(Cc2ccc(Cl)cc2)Cc2ccc([N+](=O)[O-])s2)C1 (centres unmarked) [PCM-0215989] | 20.1 |  |
| COC(=O)Nc1nc2ccc(C(=O)c3cccs3)cc2[nH]1 [PCM-0065378] | -6.2 |  |
| CN(C)CCC=C1c2ccccc2C(C)(C)c2ccccc21 [PCM-0216044] | -10.8 |  |
| O=C(c1ccc(Cl)cc1)N(Cc1ccccc1)C1CCCCC1 [PCM-0215646] | 20.1 |  |
| OCCOCCN1CCN(C(c2ccccc2)c2ccc(Cl)cc2)CC1 (centres unmarked) [PCM-0085866] | 4.1 |  |
| Cc1cc(-c2nc(-c3ccc(OC(F)(F)F)cc3)no2)nn1Cc1ccnc(N2CCN(C3CC3)CC2)c1 [PCM-0215339] | -1.5 |  |
| C[N+]1(C)CCCC(OC(=O)C(O)(c2ccccc2)c2ccccc2)C1 (centres unmarked) [PCM-0215256] | -7.8 |  |
| CCCc1cc(C(N)=S)ccn1 [PCM-0086237] | -11.7 |  |
| C#C[C@]1(O)CC[C@H]2[C@@H]3CCc4cc(O)ccc4[C@H]3CC[C@@]21C [PCM-0086269] | 26.5 |  |
| O=C(NOCC(O)CO)c1cc(Br)c(F)c(F)c1Nc1ccc(I)cc1F (centres unmarked) [PCM-0095128] | -19.3 |  |
| NC(=O)c1ccc[n+]([C@@H]2O[C@H](COP(=O)([O-])OP(=O)(O)OC[C@H]3O[C@@H](n4cnc5c(N)ncnc54)[C@H](O)[C@@H]3O)[C@@H](O)[C@H]2O)c1 [PCM-0090146] | -13.6 |  |
| C[C@@H]1CC(=O)NN=C1c1ccc(NN=C(C#N)C#N)cc1 [PCM-0090272] | 21.8 |  |
| CCN(CC)C(=O)[C@]1(c2ccccc2)C[C@@H]1CN [PCM-0095594] | 0.8 |  |
| COc1cc(N2CCC(N3CCN(C)CC3)CC2)ccc1Nc1ncnc(Nc2ccccc2S(=O)(=O)C(C)C)n1 [PCM-0215273] | 89 |  |
| COC(=O)N1CCN(Cc2cccc(NC(=O)Nc3ccc(C)nc3)c2F)CC1 [PCM-0214694] | 0.8 |  |
| COc1ccc(-c2cc(=O)c3c(OC)c(OC)c(OC)c(OC)c3o2)cc1 [PCM-0086738] | -26.9 |  |
| COc1cc2ncnc(Nc3ccc(F)c(Cl)c3)c2cc1NC(=O)/C=C/CN1CCCCC1 [PCM-0095444] | 18.6 |  |
| CC12CCC(CC1=O)C2(C)C (centres unmarked) [PCM-0214819] | -3.9 |  |
| O=c1[nH]cc(F)c(=O)[nH]1 [PCM-0065247] | -0.7 |  |
| O=[N+]([O-])c1ccc(Nc2ccccc2-c2ccccc2)c2nonc12 [PCM-0215806] | 74.1 |  |
| NC1=N[C@@](c2cccc(-c3cncnc3)c2)(c2ccnc(C(F)F)c2)c2cccc(F)c21 [PCM-0215490] | -5.4 |  |
| COCCNC(=O)Nc1ccc2nc(-c3cccs3)c(-c3cccs3)nc2c1 [PCM-0215879] | 6.9 |  |

| SMILES | inhibition at 10 µM [1] [%] | inhibition at 10 µM (read-out: BTK inhibition (%)) [%] |
| --- | --- | --- |
| CCOc1nc2cccc(C(=O)OC(C)OC(=O)OC3CCCCC3)c2n1Cc1ccc(-c2ccccc2-c2nn[nH]n2)cc1 (centres unmarked) [PCM-0090385] | 53.7 |  |
| O=[N+]([O-])c1ccc(S(=O)(=O)N2CCN(c3ccnc4cc(Cl)ccc34)CC2)c([N+](=O)[O-])c1 [PCM-0215531] | -12.4 |  |
| COc1ccc(N(C(=O)Oc2c(C)cccc2C)c2ccnc(Nc3ccc(N4CCN(C)CC4)cc3)n2)c(OC)c1 [PCM-0215345] |  | 24.1 |
| CC(C)(C)S(=O)(=O)c1ccc2nccc(Nc3n[nH]c4ccc(F)cc34)c2c1 [PCM-0213348] | 26.2 |  |
| O=C(Nc1cccnc1)c1cc(-c2ccnc(F)c2)ccc1OCc1ccccc1 [PCM-0213433] | 2.1 |  |
| COc1cc2c(=O)c(-c3ccc(O)cc3)coc2cc1O[C@@H]1O[C@H](CO)[C@@H](O)[C@H](O)[C@H]1O [PCM-0214955] | 15.6 |  |
| CNC(=O)c1cc(Oc2ccc(NC(=O)Nc3cc(C(C)(C)C)nn3-c3ccc4ncccc4c3)c(F)c2)ccn1 [PCM-0095514] | 98.6 |  |
| Cc1c(Cl)c(OCC(=O)N2CCN(C)CC2)nc2sc(C(=O)NC3CC3)c(N)c12 [PCM-0215380] | -10.8 |  |
| Cc1cc(O)cc(O)c1 [PCM-0216278] | 3.1 |  |
| C/C(=N\NC(=S)N1CCC1)c1ccccn1 [PCM-0095797] | -13.9 |  |
| COc1cc(-c2cc(-c3ccc(N4CCNCC4)cc3)cnc2C)cc(OC)c1OC [PCM-0215462] | -19.3 |  |
| COc1ccc([C@@H]2CC(=O)c3c(O)cc(O[C@@H]4O[C@H](CO[C@@H]5O[C@@H](C)[C@H](O)[C@@H](O)[C@H]5O)[C@@H](O)[C@H](O)[C@H]4O)cc3O2)cc1O [PCM-0214677] | -7 |  |
| OC(c1ccccc1)(c1ccccc1)C12CC[N+](CCOCc3ccccc3)(CC1)CC2 [PCM-0214921] | -34.2 |  |
| C[N+](C)(C)CCOP(=O)(O)OP(=O)([O-])OC[C@H]1O[C@@H](n2ccc(N)nc2=O)[C@H](O)[C@@H]1O [PCM-0215877] | -17.9 |  |
| COc1ccc(COc2cc3oc(=O)c4cc(C(C)O)ccc4c3cc2OC)cc1 (centres unmarked) [PCM-0095280] | 15.2 |  |
| O=C(Nc1ccc(-c2ccnc(Nc3ccc(N4CCOCC4)cc3)n2)cc1)[C@@H]1CCCN1 [PCM-0215262] | 4.8 |  |
| CN1CCN2c3ccccc3Cc3ccccc3C2C1 (centres unmarked) [PCM-0065420] | 12.4 |  |
| CC(/C=C1\SC(=S)N(CC(=O)O)C1=O)=C\c1ccccc1 [PCM-0095314] | -47.7 |  |
| CO[C@@H]1[C@@H](O[C@@H]2O[C@H](C)[C@@H](O[C@H]3C[C@@](C)(O)[C@@H](O)[C@H](C)O3)[C@H](N(C)C)[C@H]2O)[C@@H](CC=O)C[C@@H](C)[C@@H](O[C@H]2CC[C@H](N(C)C)[C@@H](C)O2)/C=C/C=C/C[C@@H](C)OC(=O)C[C@H]1OC(C)=O [PCM-0214867] | 14 |  |
| COc1cc(OC)c(OC)cc1C=O [PCM-0091340] |  | -12.4 |
| CCC1(c2ccc(N)cc2)CCC(=O)NC1=O (centres unmarked) [PCM-0064565] | -3.4 |  |
| CC(=O)N[C@@H](CS)C(=O)O [PCM-0064400] | 5.5 |  |
| COc1cc2c(cc1O)C[C@@H]1NCCc3cc(OC)c(O)c-2c31 [PCM-0216385] | 6.2 |  |
| O=C(O)/C=C/CCCCCCCO [PCM-0214957] | 3.4 |  |
| COc1cc(-n2c(=S)[nH]c3ccccc3c2=O)c(Cl)cc1Cl [PCM-0095750] | 29.3 |  |
